Literature values, collected in patent US20130034537A1, “SIMULTANEOUS CO-TREATMENT OF PHYSICAL AND MENTAL SYMPTOMS RELATED TO SEVERE MENTAL DISORDERS BY A SPECIALLY FERMENTED SOY FORMULATION (FSWW08)” (priority 2010, published 2013).

Experiments:
[1] = male steroid hormones
schizophrenic men = conditions: oral 2 mg
immunity = conditions: for Magnitude of immunity, ratio: DHEA = 1
adrenals = conditions: rats

Question: With C[C@]12CCC(=O)C[C@@H]1CC[C@@H]1[C@@H]2CC[C@]2(C)[C@@H](O)CC[C@@H]12 [DHT, dihydrotestosterone] as the molecule, how does the “activity relative to testosterone” value [1] read?
Answer: The value was 10 times.

Question: Which “patients who failed to increase estradiol levels” value (schizophrenic men) does the source give for CCCCC(=O)O[C@H]1CC[C@H]2[C@@H]3CCc4cc(O)ccc4[C@H]3CC[C@]12C [estradiol valeriate] here?
Answer: The value was 27%.

Question: And the testosterone (schizophrenic men)?
Answer: The testosterone was “reduce”.

Question: For C[C@]12CCC(O)CC1=CC(O)[C@@H]1[C@@H]2CC[C@]2(C)C(O)CC[C@@H]12 (stereo partly drawn) [Androstenetriol], which “Magnitude of immunity, ratio” value (immunity) is on record?
Answer: The value was 1000.

Question: With C[C@]12CCC(O)C[C@@H]1CC[C@@H]1[C@@H]2CC[C@]2(C)[C@@H](O)CC[C@@H]12 (stereo partly drawn) [androstanediol] as the molecule, how does the “potency in mediating immunity compared to DHEA” value (immunity) read?
Answer: Its value is 100 times.

Question: For O=c1c(-c2ccc(O)cc2)coc2cc(O)cc(O)c12 [genistein], which DHEA production (adrenals) is on record?
Answer: Its DHEA production is “supporting”.

Question: And the aldosterone production (adrenals)?
Answer: The aldosterone production was “inhibiting”.

Question: What about the corticosterone production (adrenals) of the same molecule?
Answer: The corticosterone production was “inhibiting”.

Question: Which “Magnitude of immunity, ratio” value (immunity) does the source give for C[C@]12CC[C@H](O)CC1=CC[C@@H]1[C@@H]2CC[C@]2(C)C(=O)CC[C@@H]12 [DHEA, dehydroepiandrosterone] here?
Answer: The value was 1.
